“And” between values parts separate entries of the source, which are not always exact repeats. Equal entries are not always repeated. Where no end group is shown, it is not given here.
Legend:
[1] = test system: BT-20 breast cancer cells; assay: Cellular uptake of labelled peptide (fluorescence microscopy); format: cell-based, human; details: cells pulsed in vitro
Protocol: FIGS. 1A-1F. […] FIG. 1A) Human MUC1's cytoplasmic amino acid sequence (MUC1CT; SEQ ID NO: 15), which includes an EGFR/src phosphorylation site (underline; SEQ ID NO: 15, residues 46-49) and β-catenin binding site (double underline; SEQ ID NO: 15, residues 50-59). […] The cells were treated with EGF (30′ EGF, 10 ng/ml) or without (-S, no serum) and protein lysates were generated and separated on an SDS-PAGE. The lysates were immunoblotted (IB) for EGFR (1005) and β-actin (AC-15) FIG. 1D-F MDA-MB-468 cells were treated with EGF (10 ng/ml) and either (FIG. 1D) hPMIP (10 μM), (FIG. 1E) PTD4 (10 μM) or (FIG. 1F) PBS overnight. The cells were fixed, probed for MUC1 (Texas Red) and β-catenin (FITC) and examined on a confocal microscope (400×). Co-localization (arrows) analysis was performed using Image Pro Plus and is designated with white pixels.
BT20 cells were treated for 2 hours with 200 μM hPMIP tagged with FITC and fixed in 4% Paraformaldhyde/PBS. Fixed cells were washed 3 times with 0.02% NaN3/PBS and incubated with Slowfade Gold antifade reagent with DAPI (Invitrogen). Cells were visualized with a fluorescence DMLB Leica compound microscope. […]

[2] = test system: MDA-MB-231 breast cancer cells implanted into the mammary fat pad of scid mice; assay: Human breast tumor xenograft in mammary fat pad; format: in vivo
Protocol: FIGS. 3A-3E. […] FIG. 3A) MDA-MB-231 cells in Matrigel were injected into the mammary fat pad of scid mice, and daily peptide treatment (50 μg/g body weight of hPMIP or PTD4) began when tumors reached 100 mm^3 (PTD4 and hPMIP n=8) and primary tumor growth was assessed (*, p=0.028). FIG. 3B) After the end of treatment, the amount of time the tumors took to progress to 1000 mm^3 was measured (ANOVA, **, p=0.03). […] FIG. 3D) MDA-MB-231 cells in Matrigel were injected into the mammary fat pad of scid mice, and daily peptide treatment (50 μg/g of hPMIP or PTD4) began when tumors reached 500 mm^3 (PTD4 n=4 and hPMIP n=6) and primary tumor growth was assessed. FIG. 3E) Following 21 days of treatment the tumors were resected immediately and tumor regrowth at the primary site and spread to secondary mammary glands was monitored (PTD4 n=4 and hPMIP n=4). Error bars represent standard error.
Immunocompromised (severe combined immune deficiency (scid)) mice (Taconic, Rockville, Md.) were tested for the presence of serum IgG and found to be <20 μg/ml IgG. Female mice (four to six weeks old) were injected with 1×10^7 cells embedded in Matri-gel (BD Biosciences) into the mammary fat pad and allowed to grow to either 100 mm^3 or 500 mm^3, based on the formula a^2×b/2 where a is the smaller diameter and b is the larger diameter. Mice were injected i.p. with 50 μg/g body weight of either PMIP or PTD4 control peptide for 21 days and measured with calipers every two days. Either at the end of 21 days, or after the tumor had reached 800 mm^3, tumors were resected by injecting the mice with buprenorphine (2.5 mg/kg body weight, Infusion Solutions, Totowa, N.J.) at least one hour prior to resection and anesthetizing the mice with isoflurane (Abbott, Abbott Park, Ill.). Following surgery, mice were treated with buprenorphine (2.5 mg/kg body weight) 8 and 16 hrs post-surgery. Animals were then followed for 10 days to examine regrowth at the primary tumor site or at secondary mammary glands, then sacrificed.

[3] = test system: MMTV-pyV mT induced mammary gland tumors; assay: MMTV-pyV mT transgenic mouse spontaneous breast cancer; format: in vivo, mice; details: for number of established tumors that completely regressed: PTD4 n=60, PMIP n=70 tumor sites
Protocol: FIGS. 4A-4D. […] FIG. 4A) MMTV-pyV mT transgenic mice were injected with FITC-msPMIP (50 μg/g body weight), sacrificed four hours later and various tissues visualized using fluorescence microscopy. FITC-msPMIP localization in the mouse mammary gland tumors is shown (2.5× and 8×). FIG. 4B) Mammary gland tumors (>0.5 cm in diameter) were allowed to develop and mice were injected daily (50 μg/g body weight, 21 day treatment, intraperitoneal (i.p.) injection, 1× per day) with either msPMIP (7 mice) or PTD4 (6 mice). At the end of treatment, animals were sacrificed and proteins lysates made of the tumors for later analysis. […] Numbers above data are number of tumors that meet the size criteria over the total potential tumor sites.
MMTV-pyV mT mice (33), obtained from Jackson Laboratories) entered into study upon the development of tumors that measured ≧0.5 cm in at least one diameter. Only mice greater than seven weeks of age were included in the study and mice that developed fluid cysts were excluded. Animals were injected i.p. with 50 μg/g body weight of msPMIP or PTD4 once daily for 21 days. Each of ten mammary glands were measured using calipers every two days, and measurements were used to determine tumor volume based on the formula a^2×b/2, with a being the smaller diameter and b being the larger diameter. After treatment for 21 days, mice were sacrificed by CO2 inhalation and tissues resected. Several msPMIP treated mice were injected with FITC-msPMIP (50 μg/g body weight) one or four hours prior to sacrifice and intact tissues were visualized using a fluorescence MZFLIII Leica dissection microscope.

[4] = test system: MDA-MB-231 cells; assay: Invasion assay (Transwell into Type I collagen); format: cell-based, human; details: MDA-MB-231, 50 μM, vs PTD4 or PBS
Protocol: FIGS. 2A-2C. […] FIG. 2A) BT20 cells were cultured in a 96-well dish (10^4 cells/well) and treated daily for 6 days with either hPMIP (10 μM) or PTD4 (10 μM) in RPMI 1640/1% FBS. An MTT assay was performed to quantify cell number after treatment was complete (***, p<0.0001). Error bars represent standard error. FIG. 2B) MDA-MB-231 and FIG. 2C) BT20 cell lines were treated with either hPMIP (50 μM), PTD4 (50 μM), or PBS overnight, labeled with Calcein AM, allowed to invade through a Transwell (8.0 μM) insert into a Type I collagen gel, and the invaded cells were fluorescently measured. (ANOVA, *p<0.0001, **p<0.0001, #p=0.007, ##p=0.007). Error bars represent standard deviation.
Collagen matrix (0.9 mg/ml Type I Rat tail collagen (BD Biosciences, Billerica, Mass.), 83.0% (v/v) M-199 medium (Life Technologies), and 0.18% NaHCO3 (Fisher, Hampton, N.H.)) was poured into a 24 well plate. Prior to collagen polymerization a […] pore transwell insert (Corning Inc., Corning, N.Y.) was placed on top of the matrix. The polymerized collagen was rehydrated using a chemoattractant (20% FBS/RPMI 1640 with […] EGF). MDA-MB-231 cells were treated with 50 μM of peptide in serum free RPMI 1640 media for 17 hours. […] The number of fluorescently labeled cells that had invaded into the collagen were measured using a Molecular Devices spectrophotometer (Ex:485, Em:538, and Cutoff:530).

[5] = test system: MMTV-pyV mT induced mammary gland tumors; assay: MMTV-pyV mT transgenic mouse spontaneous breast cancer; format: in vivo; details: human peptide in MMTV-pyV mT mice
[6] = test system: human breast cancer cell line MDA-MB-231; assay: Annexin V and cell number quantification on plastic; format: cell-based; details: MDA-MB-231 grown on plastic
Text: These cells were chosen as they represent models of high and low MUC1 expression, respectively (data not shown).

[7] = test system: Muc1; assay: Immunoblot of transgenic tumor lysates for Muc1; format: in vivo, MMTV-pyV mT mice; details: MMTV-pyV mT model
Protocol: (§1) FIGS. 6A-6B. PMIP is associated with reduced Mud 1 expression. FIG. 6A) A representative MMTV-pyV mT msPMIP (P) treated mouse and a PTD4 mouse (C) were each injected 30 minutes prior to sacrifice with epidermal growth factor (1 μg/g body weight) and with peptide. Following sacrifice the tumors were collected and protein lysates were generated. Protein (50 μg) was separated by SDS-PAGE, transferred and immunoblotted for expression of phosphotyrosine (PY99), EGFR (1005), Muc1 (CT2), and β-actin (AC-15). FIG. 6B) Lysates from MDA-MD-231 xenograft tumors (not treated with EGF; described in […]) were similarly analyzed to determine levels of EGFR and MUC1 protein expression. Relative protein levels of Muc1 were measured by densitometry and graphed (Muc1/β-actin, ANOVA, *p=0.014). Molecular weights are shown on the right. IB=immunoblot. White lines through blots indicate same gel and exposure but were non-contiguous.
(§2) To determine if msPMIP blocked interaction between Muc1 and β-catenin, we began by establishing levels of Muc1 protein expression in the tumor lysates. […] While the mechanism of this loss is unknown, it would certainly result in a loss of Muc1-dependent oncogenic signaling.

[8] = test system: MUC1; assay: Immunoblot of xenograft tumor lysates for MUC1; format: in vivo, scid mice (MDA-MB-231 xenograft); details: MDA-MB-231 xenograft model
Protocol: as §1, §2

[9] = target: T1, EGFR (Mus musculus, UniProt Q01279); assay: Immunoblot of tumor lysates after EGF and peptide injection; format: in vivo, MMTV-pyV mT mice; details: EGF and peptide 30 minutes prior to sacrifice, after 21 day treatment
T1 construct: we generated protein lysates from tumors of MMTV-pyV mT animals injected with EGF and peptide; from tissue; host or cells: mammary gland tumours of MMTV-pyV mT mice
Protocol: as §1
To determine if msPMIP was affecting EGF-dependent degradation of EGFR, we generated protein lysates from tumors of MMTV-pyV mT animals injected with EGF and peptide 30 minutes prior to animal sacrifice (after a standard 21 day drug treatment).

## FITC-hPMIP: FITC-labeled PTD4 conjugated to MIP peptides (human) (YARAAARQARAPYEKVSAGNGGSSLS; not fully specified (N-terminus); also: FITC label, place not given here)
[1]
  presence and retention of fluorescent peptide in cells: found to contain the fluorescent peptide and it was retained over time

## PTD4: PTD4 protein transduction domain, SEQ ID NO: 16, used as control peptide (YARAAARQARA; synthetic protein translocation domain)
[2]; treatment begun at 500 mm^3, 50 μg/g i.p. 21 days, resection, 10 days follow-up without drug
  average tumor volume of regrowth / secondary mammary gland tumors after resection: 760 mm^3
[3]; 50 μg/g i.p. daily, 21 days
  number of tumors sized 100-300 mm^3, end vs beginning of treatment: doubled
  tumor growth rate: 69 mm^3/day
  tumors larger than 100 mm^3 (of possible tumor sites): 47%
  tumors that grew larger than 500 mm^3 by the end of the study: 13%
[3]; 50 μg/g i.p. once daily, over 21 days of treatment
  total tumor growth for all tumor sites: 589.5%±283.6% and ~590%
[3]; 21 day treatment
  number of established tumors that completely regressed: none

## hPMIP: human PMIP, SEQ ID NO: 17: MUC1 mimetic 15 amino acid peptide in tandem with PTD4 protein transduction domain (YARAAARQARAPYEKVSAGNGGSSLS; fusion protein)
[4]
  invasion into Type I collagen matrix: strongly inhibited cellular invasion
[5]
  effect on tumor growth: no effect on tumor growth
[6]
  effect on apoptosis (Annexin V): no detectable effects
  effect on cell growth (cell number): no detectable effects
[2]; treatment begun at 100 mm^3, 50 μg/g i.p. 21 days, p=0.028
  primary tumor size vs control: significant decrease in tumor size
[2]; treatment begun at 100 mm^3, after end of treatment, p=0.03
  length of time to reach resection size of 800 mm^3: significant increase in the length of time
[2]; treatment begun at 100 mm^3, resection at 800 mm^3
  tumor regrowth and spread 10 days after resection: substantially decreased
[2]; treatment begun at 500 mm^3, after resection
  number of regrowth and secondary mammary gland tumors: found in equal number for both treatment groups

## msPMIP: mouse PMIP, SEQ ID NO: 18: mouse Muc1 mimetic peptide in tandem with PTD4 protein transduction domain (YARAAARQARAPYEEVSAGNGSSSLS; fusion protein)
[7]
  Muc1 protein expression in tumor lysates: induced a loss of Muc1 protein expression
[8]
  Muc1 protein expression in tumor lysates: induced a loss of Muc1 protein expression
[3]; 50 μg/g i.p. daily, 21 days
  number of tumors sized 100-300 mm^3, end vs beginning of treatment: remained the same
  tumors larger than 100 mm^3 (of possible tumor sites): 27%
  tumors that grew larger than 500 mm^3 by the end of the study: 1%
[3]; 21 day treatment
  number of established tumors that completely regressed: four
[3]; during drug treatment, p=0.0045
  tumor initiation (percent of tumor transitions from 0 mm^3 to 100 mm^3): significant decrease
[3]; one representative mouse, 21 day treatment
  frank tumors remaining after treatment: no frank tumors remaining
[9]
  expression of EGFR in tumor lysates: striking reduction
  phosphotyrosine in tumor lysates: striking reduction
